Assay results: patent US6344179B1, “Fluoralkenyl nortropanes” (Emory University, priority 1999, dated 2002)
Read-outs that look alike come from different tables or passages of the source.

Columns and labels:
striatal DAT = assay: PET imaging in awake rhesus monkeys; format: in vivo, rhesus monkey
Protocol: The regional kinetics of [^18F] […] Both [^18F] […] [^18F] […] The peak uptake ratio of striatumwcerebellum was 4:1 at 20 minutes for [^18F] […] 6d. The in vivo ratio of [1^18F] […] FECNT, 5:1. [^18F]

[1] = biological target: T1, norepinephrine transporter (Homo sapiens, UniProt P23975); assay: Competitive binding in transfected cell lines, [3H]Nisoxetine
T1 construct: expressed in transfected cells

human SERT = biological target: T2, human SERT (Homo sapiens, UniProt P31645); assay: Competitive binding in transfected cell lines, [3H]Citalopram
T2 construct: expressed in transfected cells

human DAT = biological target: T3, human DAT (Homo sapiens, UniProt Q01959); assay: Competitive binding in transfected cell lines, [3H]WIN 35428
T3 construct: expressed in transfected cells

rat brain DAT = biological target: T4, rat brain DAT (Rattus norvegicus, UniProt P23977); assay: In vivo specificity: RTI-113 block before the 18F ligand in rats
T4 construct: from tissue; host or cells: brain of living male Sprague Dawley rats (striatum, cortex, cerebellum dissected)
Protocol: To determine the in vivo specificity of FBNT analogs [^18F] […] 6a, 6d and 6e. The rats were sacrificed 60 minutes after injection of [^18F] […] 6a, 6d and 6e, in the DAT transporter rich striatum.

[2] = In vivo regional brain tissue distribution of 18F-labeled ligands in rats; parameters: species or system Sprague Dawley rats; conditions: rat; for Regional uptake of radioactivity, Cerebellum / Regional uptake of radioactivity, Cortex (Cx) / Regional uptake of radioactivity, Striatum / S/Cereb (striatum to cerebellum ratio) / S/Cx (striatum to cortex ratio) / Uptake of radioactivity, Blood / Uptake of radioactivity, Brain: i.v., 18F-labeled
Description: The in vivo regional brain tissue distribution of [^18F]

[3] = [3H]Nisoxetine, transfected cell lines, read-out: NET, Ki
[4] = [3H]Citalopram, cells transfected with human SERT, read-out: 5-HTT, Ki
[5] = 60 min, 5 mg/kg RTI-113 i.v. 15 minutes prior

T3 sequence (Q01959 whole entry): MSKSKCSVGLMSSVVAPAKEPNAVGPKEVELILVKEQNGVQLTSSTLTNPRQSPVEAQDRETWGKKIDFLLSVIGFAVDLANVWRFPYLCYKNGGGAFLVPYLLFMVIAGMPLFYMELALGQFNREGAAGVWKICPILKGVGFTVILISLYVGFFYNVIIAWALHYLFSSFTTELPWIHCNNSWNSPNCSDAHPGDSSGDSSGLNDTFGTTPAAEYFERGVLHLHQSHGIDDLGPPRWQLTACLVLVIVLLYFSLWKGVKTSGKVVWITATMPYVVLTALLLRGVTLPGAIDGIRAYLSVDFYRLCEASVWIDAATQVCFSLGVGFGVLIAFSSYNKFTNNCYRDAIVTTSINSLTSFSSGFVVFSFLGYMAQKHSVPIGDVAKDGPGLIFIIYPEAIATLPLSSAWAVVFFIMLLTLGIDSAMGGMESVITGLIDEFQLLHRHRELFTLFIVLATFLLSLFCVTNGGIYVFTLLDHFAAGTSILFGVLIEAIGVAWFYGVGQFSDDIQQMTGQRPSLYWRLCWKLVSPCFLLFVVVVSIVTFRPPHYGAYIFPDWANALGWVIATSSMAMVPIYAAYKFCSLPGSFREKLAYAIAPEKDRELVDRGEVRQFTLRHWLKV
T2 sequence (P31645 whole entry): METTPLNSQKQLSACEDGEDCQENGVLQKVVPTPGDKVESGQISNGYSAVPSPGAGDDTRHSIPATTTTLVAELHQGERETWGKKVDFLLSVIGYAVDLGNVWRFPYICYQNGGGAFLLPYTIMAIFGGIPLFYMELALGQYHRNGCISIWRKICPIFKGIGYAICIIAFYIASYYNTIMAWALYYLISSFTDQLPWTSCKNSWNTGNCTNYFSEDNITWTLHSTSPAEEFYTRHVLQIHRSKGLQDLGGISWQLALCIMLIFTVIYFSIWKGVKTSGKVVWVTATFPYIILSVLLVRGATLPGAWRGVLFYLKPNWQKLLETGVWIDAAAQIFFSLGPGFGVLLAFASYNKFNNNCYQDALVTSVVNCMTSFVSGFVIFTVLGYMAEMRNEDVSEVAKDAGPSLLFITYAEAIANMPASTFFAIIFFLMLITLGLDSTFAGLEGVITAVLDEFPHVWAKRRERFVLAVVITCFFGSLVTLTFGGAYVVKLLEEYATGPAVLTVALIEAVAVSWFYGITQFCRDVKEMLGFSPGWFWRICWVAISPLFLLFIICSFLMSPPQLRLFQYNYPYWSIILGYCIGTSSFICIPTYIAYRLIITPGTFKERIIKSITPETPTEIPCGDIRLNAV
T4 sequence (P23977 whole entry): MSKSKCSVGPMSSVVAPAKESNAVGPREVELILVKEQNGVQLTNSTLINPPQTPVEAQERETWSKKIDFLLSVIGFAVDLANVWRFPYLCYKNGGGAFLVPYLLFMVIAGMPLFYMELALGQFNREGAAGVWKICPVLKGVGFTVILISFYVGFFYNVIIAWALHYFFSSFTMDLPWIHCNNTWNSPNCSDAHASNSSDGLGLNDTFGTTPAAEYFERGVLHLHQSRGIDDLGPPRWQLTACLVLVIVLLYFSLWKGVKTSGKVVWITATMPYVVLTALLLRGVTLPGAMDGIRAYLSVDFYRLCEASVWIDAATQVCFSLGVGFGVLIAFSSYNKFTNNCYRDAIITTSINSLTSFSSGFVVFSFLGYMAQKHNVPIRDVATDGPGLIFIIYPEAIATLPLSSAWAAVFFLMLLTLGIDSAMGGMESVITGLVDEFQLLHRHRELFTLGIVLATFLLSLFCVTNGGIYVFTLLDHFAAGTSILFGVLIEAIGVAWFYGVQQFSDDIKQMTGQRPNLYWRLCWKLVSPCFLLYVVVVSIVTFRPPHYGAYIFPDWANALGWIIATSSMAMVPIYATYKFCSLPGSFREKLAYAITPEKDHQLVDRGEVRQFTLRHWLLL
T1 sequence (P23975 whole entry): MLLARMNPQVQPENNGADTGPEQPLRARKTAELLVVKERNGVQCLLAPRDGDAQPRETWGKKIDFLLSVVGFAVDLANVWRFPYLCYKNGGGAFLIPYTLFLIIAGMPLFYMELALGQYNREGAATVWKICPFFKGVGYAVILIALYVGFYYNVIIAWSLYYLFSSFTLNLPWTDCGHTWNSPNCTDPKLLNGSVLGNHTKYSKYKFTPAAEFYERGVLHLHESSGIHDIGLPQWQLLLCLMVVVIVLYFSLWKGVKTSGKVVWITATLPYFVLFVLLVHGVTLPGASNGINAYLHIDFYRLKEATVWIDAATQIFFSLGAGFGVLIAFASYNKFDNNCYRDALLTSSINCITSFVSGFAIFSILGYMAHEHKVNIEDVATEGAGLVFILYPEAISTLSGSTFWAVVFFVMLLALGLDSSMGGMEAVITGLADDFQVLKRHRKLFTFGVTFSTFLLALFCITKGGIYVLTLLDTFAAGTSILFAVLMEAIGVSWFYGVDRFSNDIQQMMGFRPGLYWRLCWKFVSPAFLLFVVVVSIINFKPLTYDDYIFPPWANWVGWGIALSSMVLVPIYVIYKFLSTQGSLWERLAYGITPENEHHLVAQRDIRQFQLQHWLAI

Molecule: COC(=O)[C@H]1[C@@H](c2ccc(Cl)cc2)C[C@@H]2CC[C@H]1N2C/C=C\CF [6f, N-((Z)-4-fluorobut-2-en-1-yl)-2β-carbomethoxy-3β-(4-chlorophenyl) nortropane]
- initial uptake in striatum and cerebellum (striatal DAT; awake rhesus monkeys): high initial uptake in the striatum and very little uptake in the cerebellum

Molecule: COC(=O)[C@H]1[C@@H](c2ccc(F)cc2)C[C@@H]2CC[C@H]1N2C/C=C/I [Altropane, reference compound]
- Ki [1, 3]: > 10000 nM
- Ki (human SERT; [4]): 55.4 nM
- Ki (human DAT; [3H]WIN 35428 as reference, cells transfected with human DAT, read-out: DAT, Ki): 0.78 nM

Molecule: COC(=O)[C@H]1[C@@H](c2ccc(Cl)cc2)C[C@@H]2CC[C@H]1N2C/C=C/I [MMG/142, IPT, reference compound]
- Ki [1]: 48.7 nM
- Ki (human SERT): 4.9 nM
- Ki (human DAT): 1.16 nM

Molecule: N-((E)-4-fluorobut-2-en-1-yl)-2β-carbomethoxy-3β-phenylnortropane [6a]
- Ki [1, 3]: > 10000 nM
- Ki (human SERT; [4]): 102 nM
- Regional uptake of radioactivity, Cerebellum (rat brain DAT; [5]): 0.09 % dose/g
- Regional uptake of radioactivity, Cortex (Cx) (rat brain DAT; [5]): 0.10 % dose/g
- Regional uptake of radioactivity, Striatum (rat brain DAT; [5]): 0.11 % dose/g
- S/Cereb (striatum to cerebellum ratio) (rat brain DAT; [5]): 1.22
- S/Cx (striatum to cortex ratio) (rat brain DAT; [5]): 1.10
- Uptake of radioactivity, Blood (rat brain DAT; [5]): 0.12 % dose/g
- Uptake of radioactivity, Brain (rat brain DAT; [5]): 0.07 % dose/g
- effect of RTI-113 on uptake in the striatum (rat brain DAT; RTI-113 5 mg/kg i.v. 15 minutes prior, 60 minutes): significantly blocked
- selectivity for DAT over SERT (human DAT; from binding in transfected cells): 14 times
- selectivity for DAT (human DAT; in vitro competitive binding): very high selectivity
- retention of radioactivity in the striatum (striatal DAT; awake rhesus monkey, PET images): no visible retention of radioactivity in the striatum
- clearance from striatal tissue ([2]; at 60 minutes compared to 5 minutes post injection): 75%
- clearance from striatal tissue ([2]; at 120 minutes compared to 5 minutes post injection): 90%
- Regional uptake of radioactivity, Cerebellum ([2]; 5 min): 0.55 % dose/g
- Regional uptake of radioactivity, Cortex (Cx) ([2]; 5 min): 0.84 % dose/g
- Regional uptake of radioactivity, Striatum ([2]; 5 min): 1.25 % dose/g
- S/Cereb (striatum to cerebellum ratio) ([2]; 5 min): 2.27
- S/Cx (striatum to cortex ratio) ([2]; 5 min): 1.49
- Uptake of radioactivity, Blood ([2]; 5 min): 0.22 % dose/g
- Uptake of radioactivity, Brain ([2]; 5 min): 0.58 % dose/g
- Regional uptake of radioactivity, Cerebellum ([2]; 30 min): 0.12 % dose/g
- Regional uptake of radioactivity, Cortex (Cx) ([2]; 30 min): 0.19 % dose/g
- Regional uptake of radioactivity, Striatum ([2]; 30 min): 0.36 % dose/g
- S/Cereb (striatum to cerebellum ratio) ([2]; 30 min): 3.0
- S/Cx (striatum to cortex ratio) ([2]; 30 min): 1.89
- Uptake of radioactivity, Blood ([2]; 30 min): 0.15 % dose/g
- Uptake of radioactivity, Brain ([2]; 30 min): 0.13 % dose/g
- Regional uptake of radioactivity, Cerebellum ([2]; 60 min): 0.09 % dose/g
- Regional uptake of radioactivity, Cortex (Cx) ([2]; 60 min): 0.13 % dose/g
- Regional uptake of radioactivity, Striatum ([2]; 60 min): 0.25 % dose/g
- S/Cereb (striatum to cerebellum ratio) ([2]; 60 min): 2.78
- S/Cx (striatum to cortex ratio) ([2]; 60 min): 1.92
- Uptake of radioactivity, Blood ([2]; 60 min): 0.11 % dose/g
- Uptake of radioactivity, Brain ([2]; 60 min): 0.09 % dose/g
- Regional uptake of radioactivity, Cerebellum ([2]; 120 min): 0.07 % dose/g
- Regional uptake of radioactivity, Cortex (Cx) ([2]; 120 min): 0.09 % dose/g
- Regional uptake of radioactivity, Striatum ([2]; 120 min): 0.13 % dose/g
- S/Cereb (striatum to cerebellum ratio) ([2]; 120 min): 1.86
- S/Cx (striatum to cortex ratio) ([2]; 120 min): 1.86
- Uptake of radioactivity, Blood ([2]; 120 min): 0.07 % dose/g
- Uptake of radioactivity, Brain ([2]; 120 min): 0.07 % dose/g
